Earlier results in patent US20040192715A1, “Methods of administering opioid antagonists and compositions thereof” (priority 2003, published 2004).

Legend:
mice = conditions: parenteral administration to mice
[1] = oral administration

For `O=C1CC[C@@]2(O)[C@H]3Cc4ccc(O)c5c4[C@@]2(CCN3CC2CC2)C1O5` (stereo partly drawn) [naltrexone, 17-(cyclopropylmethyl) -4,5-epoxy-3,14-dihydroxymorphinan-6-one], the protein binding is listed as “approximately 21%”, the analgesia (mice) is listed as “produce analgesia” and the oral bioavailability [1] is listed as 5-40%.
